Data as given in patent US12043632B2, “6-heteroaryloxy benzimidazoles and azabenzimidazoles as JAK2 inhibitors” (Ajax Therapeutics, Inc., priority 2020, dated 2024).

Target: T1, JAK2 (JH1domain-catalytic, Y1007F,Y1008F) kinase (Homo sapiens, UniProt O60674, Y1007F/Y1008F)
T1 construct: JAK2 (JH1domain-catalytic, Y1007F,Y1008F) kinase was expressed as N-terminal fusion; made in house; host or cells: transiently transfected HEK293 cells
Assay: JAK2 JH1 Domain Binding Assay
Settings: qPCR readout

T1 sequence (O60674 849-1124 Y1007F/Y1008F limits assumed): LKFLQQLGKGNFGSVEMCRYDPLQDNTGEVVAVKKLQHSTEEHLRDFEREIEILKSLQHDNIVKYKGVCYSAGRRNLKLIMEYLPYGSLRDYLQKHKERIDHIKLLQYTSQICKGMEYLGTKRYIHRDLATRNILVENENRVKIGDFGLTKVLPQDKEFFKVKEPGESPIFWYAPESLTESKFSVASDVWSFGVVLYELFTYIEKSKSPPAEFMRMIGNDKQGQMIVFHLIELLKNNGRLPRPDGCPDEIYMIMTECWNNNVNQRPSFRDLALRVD

Kd | SMILES
< 10 nM | CNc1nccn2ncc(Oc3cnc4nc(Nc5cc(C(F)(F)F)cn(-c6cnn(C)c6)c5=O)n(C)c4c3Cl)c12 [Example I-171, 3-((7-chloro-1-methyl-6-((4-(methylamino)pyrazolo[1,5-a]pyrazin-3-yl)oxy)-1H-imidazo[4,5-b]pyridin-2-yl)amino)-1-(1-methyl-1H-pyrazol-4-yl)-5-(trifluoromethyl)pyridin-2(1H)-one]
10 to 50 nM | Cn1c(Nc2ccc(CN3CCC(F)(F)CC3)c(C(F)(F)F)c2)nc2ncc(Oc3cnn4ccncc34)c(Cl)c21 [Example I-173, 7-chloro-N-(4-((4,4-difluoropiperidin-1-yl)methyl)-3-(trifluoromethyl)phenyl)-1-methyl-6-(pyrazolo[1,5-a]pyrazin-3-yloxy)-1H-imidazo[4,5-b]pyridin-2-amine]
10 to 50 nM | Cn1c(Nc2ccc(CN3CCCC(F)(F)C3)c(C(F)(F)F)c2)nc2ncc(Oc3cnn4ccncc34)c(Cl)c21 [Example I-174, 7-chloro-N-(4-((3,3-difluoropiperidin-1-yl)methyl)-3-(trifluoromethyl)phenyl)-1-methyl-6-(pyrazolo[1,5-a]pyrazin-3-yloxy)-1H-imidazo[4,5-b]pyridin-2-amine]
10 to 50 nM | CO[C@H]1CCN(Cc2ccc(Nc3nc4ncc(Oc5cnn6ccncc56)c(Cl)c4n3C)cc2C(F)(F)F)C1 [Example I-175, (S)-7-chloro-N-(4-((3-methoxypyrrolidin-1-yl)methyl)-3-(trifluoromethyl)phenyl)-1-methyl-6-(pyrazolo[1,5-a]pyrazin-3-yloxy)-1H-imidazo[4,5-b]pyridin-2-amine]
< 10 nM | CO[C@@H]1CCN(Cc2ccc(Nc3nc4ncc(Oc5cnn6ccncc56)c(Cl)c4n3C)cc2C(F)(F)F)C1 [Example I-176, (R)-7-chloro-N-(4-((3-methoxypyrrolidin-1-yl)methyl)-3-(trifluoromethyl)phenyl)-1-methyl-6-(pyrazolo[1,5-a]pyrazin-3-yloxy)-1H-imidazo[4,5-b]pyridin-2-amine]
< 10 nM | CNc1nccn2ncc(Oc3cnc4nc(Nc5cc(C(F)(F)F)cn(C6CC6)c5=O)n(C)c4c3Cl)c12 [Example I-178, 3-((7-chloro-1-methyl-6-((4-(methylamino)pyrazolo[1,5-a]pyrazin-3-yl)oxy)-1H-imidazo[4,5-b]pyridin-2-yl)amino)-1-cyclopropyl-5-(trifluoromethyl)pyridin-2(1H)-one]
< 10 nM | CNc1nccn2ncc(Oc3cnc4nc(Nc5cc(C(F)(F)F)cn(-c6cccnc6)c5=O)n(C)c4c3Cl)c12 [Example I-179, 3-((7-chloro-1-methyl-6-((4-(methylamino)pyrazolo[1,5-a]pyrazin-3-yl)oxy)-1H-imidazo[4,5-b]pyridin-2-yl)amino)-5-(trifluoromethyl)-2H-[1,3′-bipyridin]-2-one]
50 to 1000 nM | CNc1nccn2ncc(Oc3cnc4nc(Nc5ccc(CN6CCC(F)(F)C6)c(C(F)(F)F)c5)n(C)c4c3Cl)c12 [Example I-184]
10 to 50 nM | CNc1nccn2ncc(Oc3cnc4nc(Nc5ccc(CN6CC(F)C6)c(C(F)(F)F)c5)n(C)c4c3Cl)c12 [Example I-189, 7-chloro-N-(4-((3-fluoroazetidin-1-yl)methyl)-3-(trifluoromethyl)phenyl)-1-methyl-6-((4-(methylamino)pyrazolo[1,5-a]pyrazin-3-yl)oxy)-1H-imidazo[4,5-b]pyridin-2-amine]
10 to 50 nM | CNc1nccn2ncc(Oc3cnc4nc(Nc5ccc(CN6CC(OC)C6)c(C(F)(F)F)c5)n(C)c4c3Cl)c12 [Example I-190, 7-chloro-N-(4-((3-methoxyazetidin-1-yl)methyl)-3-(trifluoromethyl)phenyl)-1-methyl-6-((4-(methylamino)pyrazolo[1,5-a]pyrazin-3-yl)oxy)-1H-imidazo[4,5-b]pyridin-2-amine]
10 to 50 nM | CNc1nccn2ncc(Oc3cnc4nc(Nc5ccc(CN6CC[C@H](OC)C6)c(C(F)(F)F)c5)n(C)c4c3Cl)c12 [Example I-191, (S)-7-chloro-N-(4-((3-methoxypyrrolidin-1-yl)methyl)-3-(trifluoromethyl)phenyl)-1-methyl-6-((4-(methylamino)pyrazolo[1,5-a]pyrazin-3-yl)oxy)-1H-imidazo[4,5-b]pyridin-2-amine]
10 to 50 nM | CNc1nccn2ncc(Oc3cnc4nc(Nc5ccc(CN6CC[C@@H](OC)C6)c(C(F)(F)F)c5)n(C)c4c3Cl)c12 [Example I-192]
< 10 nM | Cn1c(Nc2cc(CN3CC(F)C3)cc(C(F)(F)F)c2)nc2ncc(Oc3cnn4ccncc34)c(Cl)c21 [Example I-195, 7-chloro-N-(3-((3-fluoroazetidin-1-yl)methyl)-5-(trifluoromethyl)phenyl)-1-methyl-6-(pyrazolo[1,5-a]pyrazin-3-yloxy)-1H-imidazo[4,5-b]pyridin-2-amine]

The next lines start with the compound.

SMILES | Kd
CN1CC[C@H](n2nc(Nc3nc4ncc(Oc5cnn6cc(F)ccc56)c(Cl)c4n3C)cc2C(C)(C)C)C1 [Example I-169, (S)—N-(5-(tert-butyl)-1-(1-methylpyrrolidin-3-yl)-1H-pyrazol-3-yl)-7-chloro-6-((6-fluoropyrazolo[1,5-a]pyridin-3-yl)oxy)-1-methyl-1H-imidazo[4,5-b]pyridin-2-amine] | < 10 nM
CN1CC[C@@H](n2nc(Nc3nc4ncc(Oc5cnn6cc(F)ccc56)c(Cl)c4n3C)cc2C(C)(C)C)C1 [Example I-170] | 10 to 50 nM
CN1CCN(c2cc(Nc3nc4ncc(Oc5cnn6ccncc56)c(Cl)c4n3C)cc(C(F)(F)F)c2)CC1 [Example I-172, 7-chloro-1-methyl-N-(3-(4-methylpiperazin-1-yl)-5-(trifluoromethyl)phenyl)-6-(pyrazolo[1,5-a]pyrazin-3-yloxy)-1H-imidazo[4,5-b]pyridin-2-amine] | < 10 nM
Cn1cc(C(F)(F)F)cc(Nc2nc3ncc(Oc4cnn5ccncc45)c(Cl)c3n2C)c1=O [Example I-177, 3-((7-chloro-1-methyl-6-(pyrazolo[1,5-a]pyrazin-3-yloxy)-1H-imidazo[4,5-b]pyridin-2-yl)amino)-1-methyl-5-(trifluoromethyl)pyridin-2(1H)-one] | < 10 nM
Cc1cn(-c2cc(Nc3nc4ncc(Oc5cnn6ccncc56)c(Cl)c4n3C)cc(C(F)(F)F)c2)cn1 [Example I-180, 7-chloro-1-methyl-N-(3-(4-methyl-1H-imidazol-1-yl)-5-(trifluoromethyl)phenyl)-6-(pyrazolo[1,5-a]pyrazin-3-yloxy)-1H-imidazo[4,5-b]pyridin-2-amine] | < 10 nM
CO[C@H]1CCN(Cc2cc(Nc3nc4ncc(Oc5cnn6ccncc56)c(Cl)c4n3C)cc(C(F)(F)F)c2)C1 [Example I-181, (S)-7-chloro-N-(3-((3-methoxypyrrolidin-1-yl)methyl)-5-(trifluoromethyl)phenyl)-1-methyl-6-(pyrazolo[1,5-a]pyrazin-3-yloxy)-1H-imidazo[4,5-b]pyridin-2-amine] | < 10 nM
CO[C@@H]1CCN(Cc2cc(Nc3nc4ncc(Oc5cnn6ccncc56)c(Cl)c4n3C)cc(C(F)(F)F)c2)C1 [Example I-182, (R)-7-chloro-N-(3-((3-methoxypyrrolidin-1-yl)methyl)-5-(trifluoromethyl)phenyl)-1-methyl-6-(pyrazolo[1,5-a]pyrazin-3-yloxy)-1H-imidazo[4,5-b]pyridin-2-amine] | < 10 nM
Cn1c(Nc2cc(C(F)(F)F)cn(CCO)c2=O)nc2ncc(Oc3cnn4ccc(N5CCOCC5)cc34)c(Cl)c21 [Example I-183, 3-((7-chloro-1-methyl-6-((5-morpholinopyrazolo[1,5-a]pyridin-3-yl)oxy)-1H-imidazo[4,5-b]pyridin-2-yl)amino)-1-(2-hydroxyethyl)-5-(trifluoromethyl)pyridin-2(1H)-one] | < 10 nM
Cn1c(Nc2cc(C(C)(C)C)n(C3CC4(COC4)C3)n2)nc2ncc(Oc3cnn4ccncc34)c(C#N)c21 [Example I-187, 2-((5-(tert-butyl)-1-(2-oxaspiro[3.3]heptan-6-yl)-1H-pyrazol-3-yl)amino)-1-methyl-6-(pyrazolo[1,5-a]pyrazin-3-yloxy)-1H-imidazo[4,5-b]pyridine-7-carbonitrile] | 10 to 50 nM
CCc1cc(Nc2nc3ncc(Oc4cnn5ccncc45)c(Cl)c3n2C)cc(C(=O)N2CCC2)n1 [Example I-188, Azetidin-1-yl(4-((7-chloro-1-methyl-6-(pyrazolo[1,5-a]pyrazin-3-yloxy)-1H-imidazo[4,5-b]pyridin-2-yl)amino)-6-ethylpyridin-2-yl)methanone] | < 10 nM
CNc1nccn2ncc(Oc3cnc4nc(Nc5cc(C(F)(F)F)cn(C)c5=O)n(C)c4c3C#N)c12 [Example I-193, 1-methyl-2-((1-methyl-2-oxo-5-(trifluoromethyl)-1,2-dihydropyridin-3-yl)amino)-6-((4-(methylamino)pyrazolo[1,5-a]pyrazin-3-yl)oxy)-1H-imidazo[4,5-b]pyridine-7-carbonitrile] | < 10 nM
Cn1c(Nc2cc(CN3CCOCC3)cc(C(F)(F)F)c2)nc2ncc(Oc3cnn4ccncc34)c(Cl)c21 [Example I-194, 7-chloro-1-methyl-N-(3-(morpholinomethyl)-5-(trifluoromethyl)phenyl)-6-(pyrazolo[1,5-a]pyrazin-3-yloxy)-1H-imidazo[4,5-b]pyridin-2-amine] | < 10 nM
COC1CN(Cc2cc(Nc3nc4ncc(Oc5cnn6ccncc56)c(Cl)c4n3C)cc(C(F)(F)F)c2)C1 [Example I-196, 7-chloro-N-(3-((3-methoxyazetidin-1-yl)methyl)-5-(trifluoromethyl)phenyl)-1-methyl-6-(pyrazolo[1,5-a]pyrazin-3-yloxy)-1H-imidazo[4,5-b]pyridin-2-amine] | < 10 nM
Cn1c(Nc2cc(CN3CCC(F)(F)C3)cc(C(F)(F)F)c2)nc2ncc(Oc3cnn4ccncc34)c(Cl)c21 [Example I-197, 7-chloro-N-(3-((3,3-difluoropyrrolidin-1-yl)methyl)-5-(trifluoromethyl)phenyl)-1-methyl-6-(pyrazolo[1,5-a]pyrazin-3-yloxy)-1H-imidazo[4,5-b]pyridin-2-amine] | < 10 nM
